Measured values: ChEMBL document CHEMBL1122830, “N-(Phosphonoacetyl)amino phosphonates. Phosphonate analogues of N-(phosphonoacetyl)-L-aspartic acid (PALA)” (1985)
Calls of active or inactive are those of the source. The rule behind the calls is not given here.

Key:
KB [1] = assay: Inhibitory activity against human KB cell line at the dose range of 1-400 (ug/mL); NA=Not active; type: functional, cell-based
KB [2] = assay: Inhibitory activity against human KB cell line; type: functional; conditions: read-out: ID50 (the source's name)

For `O=C(O)CCC(NC(=O)CP(=O)(O)O)P(=O)(O)O` (stereo unspecified), the ID50 (KB [1]) was “inactive”.
In the case of `CC(NC(=O)CP(=O)(O)O)P(=O)(O)O` (stereo unspecified), the ID50 (KB [1]) is reported as “inactive”.
With `CCOP(=O)(OCC)C(N)C1CCCCC1` (stereo unspecified) the ID50 (KB [1]) was “inactive”.
In the case of `O=C(CP(=O)(O)O)NC1(P(=O)(O)O)CCCC1`, the ID50 (KB [1]) is reported as “inactive”.
With `CCOP(=O)(OCC)C(N)C1CC1` (stereo unspecified) the ID50 (KB [1]) was “inactive”.
`CCCC(NC(=O)CP(=O)(O)O)P(=O)(O)O` (stereo in doubt; form 1) was tested, and the ID50 (KB [1]) was “inactive”.
For `O=C(CP(=O)(O)O)NC(C1CCCCC1)P(=O)(O)O` (stereo unspecified), the ID50 (KB [1]) was “inactive”.
`O=C(CP(=O)(O)O)NC(C1CCCC1)P(=O)(O)O` (stereo unspecified) was tested, and the ID50 (KB [1]) was “inactive”.
`CCOP(=O)(OCC)C(N)C1CCCC1` (stereo unspecified) was tested, and the ID50 (KB [1]) was “inactive”.
For `CCOP(=O)(OCC)C(N)CCC(=O)OC` (stereo unspecified), the ID50 (KB [1]) was “inactive”.
In the case of `O=C(CP(=O)(O)O)NC(CP(=O)(O)O)C(=O)O` (stereo unspecified), the ID50 (KB [1]) is reported as “inactive”.
In the case of `O=C(O)CCCC(NC(=O)CP(=O)(O)O)P(=O)(O)O` (stereo unspecified), the ID50 (KB [1]) is reported as “inactive”.
`CCOP(=O)(OCC)C(N)C(C)(C)C.O=C(O)C(=O)O` (stereo unspecified) showed an IC50 (KB [2]) of 240 mg/L.
`CC(C)(NC(=O)CP(=O)(O)O)P(=O)(O)O` was tested, and the ID50 (KB [1]) was “inactive”.
With `O=C(O)CC(NC(=O)CP(=O)(O)O)P(=O)(O)O` (stereo unspecified) the ID50 (KB [1]) was “inactive”.
`CCCC(NC(=O)CP(=O)(O)O)P(=O)(O)O` (stereo in doubt; form 2) was tested, and the ID50 (KB [1]) was “inactive”.
For `O=C(CP(=O)(O)O)NCCCP(=O)(O)O`, the ID50 (KB [1]) was “inactive”.
With `CC(C)C(NC(=O)CP(=O)(O)O)P(=O)(O)O` (stereo unspecified) the ID50 (KB [1]) was “inactive”.
In the case of `CCOC(=O)CCCC(N)P(=O)(OCC)OCC` (stereo unspecified), the ID50 (KB [1]) is reported as “inactive”.
In the case of `CC(C)(C)C(NC(=O)CP(=O)(O)O)P(=O)(O)O` (stereo unspecified), the ID50 (KB [1]) is reported as “inactive”.
`O=C(O)CC(NC(=O)CP(=O)(O)O)C(=O)O` (stereo unspecified) was tested, and the ID50 (KB [1]) was “inactive”.
With `CCOP(=O)(OCC)C(N)C1CCC1` (stereo unspecified) the ID50 (KB [1]) was “inactive”.
In the case of `CCP(=O)(O)CNC(=O)CP(=O)(O)O`, the ID50 (KB [1]) is reported as “inactive”.
`O=C(CP(=O)(O)O)NC(c1ccccc1)P(=O)(O)O` (stereo unspecified) was tested, and the ID50 (KB [1]) was “inactive”.
For `O=C(CP(=O)(O)O)NC(C1CC1)P(=O)(O)O` (stereo unspecified), the ID50 (KB [1]) was “inactive”.
With `O=C(CP(=O)(O)O)NC(C1CCC1)P(=O)(O)O` (stereo unspecified) the ID50 (KB [1]) was “inactive”.
